# System: Endogenous Huntingtin Protein (capture with MW1 (expanded polyglutamine) or MAB2166 antibody)
# Test: Endogenous Huntingtin Protein Assay (ELISA-based Meso Scale Discovery electrochemiluminescence assay)
# Type: cell-based
# Settings: MSD electrochemiluminescence platform
# In short: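 MSD electrochemiluminescence sandwich immunoassay: plates coated with 1 μg/mL MW1 or MAB2166 capture antibody, samples incubated overnight at 4 °C. Detection with rabbit monoclonal #5656S then SULFO-TAG anti-rabbit (each 0.25 μg/mL, 1 h RT).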
row,IC50,Compound
1,≤ 100 nM,"5-(8-ethyl-2-methylimidazo[1,2-b]pyridazin-6-yl)-2-(6-{[(3R,4S)-3-fluoro-2,2,6,6-tetramethylpiperidin-4-yl]oxy}pyridazin-3-yl)pyridin-3-ol and 5-(8-ethyl-2-methylimidazo[1,2-b]pyridazin-6-yl)-2-(6-{[(3S,4R)-3-fluoro-2,2,6,6-tetramethylpiperidin-4-yl]oxy}pyridazin-3-yl)pyridin-3-ol [Compound 60]"
2,≤ 100 nM,"5-(2,8-dimethylimidazo[1,2-b]pyridazin-6-yl)-2-(6-{[(3R,4S)-3-fluoro-2,2,6,6-tetramethylpiperidin-4-yl]oxy}pyridazin-3-yl)pyridin-3-ol and 5-(2,8-dimethylimidazo[1,2-b]pyridazin-6-yl)-2-(6-{[(3S,4R)-3-fluoro-2,2,6,6-tetramethylpiperidin-4-yl]oxy}pyridazin-3-yl)pyridin-3-ol [Compound 47]"
3,100 to 500 nM,"Oc1cc(-c2cn[nH]c2)cnc1-c1ccc(OC2CC3(CC3)NC3(CC3)C2)nn1 (centres unmarked) [Compound 31, 2-{6-[(4-azadispiro[2.1.2^5.3^3]decan-9-yl)oxy]pyridazin-3-yl}-5-(1H-pyrazol-4-yl)pyridin-3-ol]"
4,≤ 100 nM,"COc1cc(-c2cnc(-c3ccc(N4CC[C@@H](NC(C)(C)C)C4)nn3)c(O)c2)ncn1 [Compound 30, 2-{6-[(3R)-3-(tert-butylamino)pyrrolidin-1-yl]pyridazin-3-yl}-5-(6-methoxypyrimidin-4-yl)pyridin-3-ol]"
5,≤ 100 nM,"[2H]C([2H])([2H])n1cc(-c2cnc(-c3ccc(N4CCN[C@@H](C5CC5)C4)nn3)c(O)c2)cn1 [Compound 129, 2-{6-[(3S)-3-cyclopropylpiperazin-1-yl]pyridazin-3-yl}-5-[1-(^2H3)methyl-1H-pyrazol-4-yl]pyridin-3-ol]"
6,≤ 100 nM,"Cn1cc2cc(-c3cnc(-c4ccc(N5CC(C)(C)NC(C)(C)C5)nn4)c(O)c3)cc(F)c2n1 [Compound 89, 5-(7-fluoro-2-methyl-2H-indazol-5-yl)-2-[6-(3,3,5,5-tetramethylpiperazin-1-yl)pyridazin-3-yl]pyridin-3-ol]"
7,≤ 100 nM,"CC1(C)CC(Oc2ccc(-c3ncc(-c4nccs4)cc3O)nn2)CC2(CC2)N1 (centres unmarked) [Compound 79, 2-{6-[(5,5-dimethyl-4-azaspiro[2.5]octan-7-yl)oxy]pyridazin-3-yl}-5-(1,3-thiazol-2-yl)pyridin-3-ol]"
8,≤ 100 nM,"Cn1cc2cc(-c3cnc(-c4ccc(O[C@H]5CC(C)(C)NC(C)(C)[C@H]5F)nn4)c(O)c3)cc(F)c2n1 (single isomer, unassigned) [Compound 35, 5-(7-fluoro-2-methyl-2H-indazol-5-yl)-2-(6-{[(3R,4S)-3-fluoro-2,2,6,6-tetramethylpiperidin-4-yl]oxy}pyridazin-3-yl)pyridin-3-ol or 5-(7-fluoro-2-methyl-2H-indazol-5-yl)-2-(6-{[(3S,4R)-3-fluoro-2,2,6,6-tetramethylpiperidin-4-yl]oxy}pyridazin-3-yl)pyridin-3-ol]"
9,500 to 1000 nM,"CC1CN(c2ccc(-c3ncc(NCc4cccc5cccnc45)cc3O)nn2)CCN1 (centres unmarked) [Compound 113, 2-[6-(3-methylpiperazin-1-yl)pyridazin-3-yl]-5-{[(quinolin-8-yl)methyl]amino}pyridin-3-ol]"
10,≤ 100 nM,"CC(C)(C)N[C@H]1CCN(c2ncc(-c3ncc(-c4c[nH]nc4F)cc3O)nn2)C1 [Compound 145, 2-{3-[(3S)-3-(tert-butylamino)pyrrolidin-1-yl]-1,2,4-triazin-6-yl}-5-(3-fluoro-1H-pyrazol-4-yl)pyridin-3-ol]"
11,≤ 100 nM,"COc1cc(-c2cnc(-c3ccc(OC4CC(C)(C)NC(C)(C)C4F)nn3)c(O)c2)nn2cc(C)nc12 (mixture of isomers) [Compound 57, 2-(6-{[(3R,4S)-3-fluoro-2,2,6,6-tetramethylpiperidin-4-yl]oxy}pyridazin-3-yl)-5-(8-methoxy-2-methylimidazo[1,2-b]pyridazin-6-yl)pyridin-3-ol and 2-(6-{[(3S,4R)-3-fluoro-2,2,6,6-tetramethylpiperidin-4-yl]oxy}pyridazin-3-yl)-5-(8-methoxy-2-methylimidazo[1,2-b]pyridazin-6-yl)pyridin-3-ol]"
12,500 to 1000 nM,"CC(C)C1CN(c2ccc(-c3ncc(/C=C/c4cn[nH]c4)cc3O)nn2)CCN1 (centres unmarked) [Compound 130, 2-{6-[3-(propan-2-yl)piperazin-1-yl]pyridazin-3-yl}-5-[(E)-2-(1H-pyrazol-4-yl)ethenyl]pyridin-3-ol]"
13,100 to 500 nM,"Oc1cc(-n2nccn2)cnc1-c1cnc(N2CCN[C@@H](C3CC3)C2)nn1 [Compound 159, 2-{3-[(3S)-3-cyclopropylpiperazin-1-yl]-1,2,4-triazin-6-yl}-5-(2H-1,2,3-triazol-2-yl)pyridin-3-ol]"
14,≤ 100 nM,"CC1(C)C[C@@H](Oc2ccc(-c3ncc(-c4cn[nH]c4)cc3O)nn2)[C@@H](F)C(C)(C)N1 (single isomer, unassigned) [Compound 39, 2-(6-{[(3S,4R)-3-fluoro-2,2,6,6-tetramethylpiperidin-4-yl]oxy}pyridazin-3-yl)-5-(1H-pyrazol-4-yl)pyridin-3-ol or 2-(6-{[(3S,4R)-3-fluoro-2,2,6,6-tetramethylpiperidin-4-yl]oxy}pyridazin-3-yl)-5-(1H-pyrazol-4-yl)pyridin-3-ol]"
15,≤ 100 nM,"2-{3-[(3R)-3-(tert-butylamino)pyrrolidin-1-yl]-1,2,4-triazin-6-yl}-5-(2,8-dimethylimidazo[1,2-b]pyridazin-6-yl)pyridin-3-ol [Compound 149]"
16,500 to 1000 nM,2-{6-[(3R)-(tert-butylamino)pyrrolidin-1-yl]pyridazin-3-yl}-5-(1-methyl-1H-pyrazol-3-yl)pyridin-3-ol and 2-{6-[(3S)-(tert-butylamino)pyrrolidin-1-yl]pyridazin-3-yl}-5-(1-methyl-1H-pyrazol-3-yl)pyridin-3-ol [Compound 17]

row,Compound,IC50
1,5-[(2-methylpyrimidin-5-yl)amino]-2-{6-[(3R)-3-(propan-2-yl)piperazin-1-yl]pyridazin-3-yl}pyridin-3-ol and 5-[(2-methylpyrimidin-5-yl)amino]-2-{6-[(3S)-3-(propan-2-yl)piperazin-1-yl]pyridazin-3-yl}pyridin-3-ol [Compound 134],500 to 1000 nM
2,"[2H]C([2H])([2H])n1cc(-c2cnc(-c3ccc(N(C)C4CC(C)(C)NC5(CC5)C4)nn3)c(O)c2)cn1 (centres unmarked) [Compound 53, 2-{6-[(5,5-dimethyl-4-azaspiro[2.5]octan-7-yl)(methyl)amino]pyridazin-3-yl}-5-[1-(^2H3)methyl-1H-pyrazol-4-yl]pyridin-3-ol]",≤ 100 nM
3,"5-(2,4-dimethyl-1,3-benzoxazol-6-yl)-2-(6-{[(3R,4S)-3-fluoro-2,2,6,6-tetramethylpiperidin-4-yl]oxy}pyridazin-3-yl)pyridin-3-ol and 5-(2,4-dimethyl-1,3-benzoxazol-6-yl)-2-(6-{[(3S,4R)-3-fluoro-2,2,6,6-tetramethylpiperidin-4-yl]oxy}pyridazin-3-yl)pyridin-3-ol [Compound 56]",≤ 100 nM
4,5-[(6-methylpyridin-3-yl)amino]-2-{6-[(3R)-3-(propan-2-yl)piperazin-1-yl]pyridazin-3-yl}pyridin-3-ol and 5-[(6-methylpyridin-3-yl)amino]-2-{6-[(3S)-3-(propan-2-yl)piperazin-1-yl]pyridazin-3-yl}pyridin-3-ol [Compound 127],≤ 100 nM

# — patent publication US12577226B2, “Compounds for treating Huntington's disease” (PTC THERAPEUTICS, INC., priority 2019, dated 2026)
